# Measurements from ChEMBL document CHEMBL5233206, “An overview on the synthesis of carbohydrate-based molecules with biological activity related to neurodegenerative diseases” (RSC Med Chem, 2021).
# How the values were obtained:
# [1] = biological target: T1, Cholinesterase (Equus caballus, UniProt P81908); test: Binding affinity to horse serum BuChE using ATCh-iodide as substrate by ellman's method
# [2] = biological target: T2, Cholinesterase (Homo sapiens, UniProt P06276)
# Description: Binding affinity to BuChE (unknown origin) assessed as inhibition constant incubated for 30 mins by ellman's method
# [3] = biological target: T3, Acetylcholinesterase (Homo sapiens, UniProt P22303)
# T3 sequence (P22303 whole entry): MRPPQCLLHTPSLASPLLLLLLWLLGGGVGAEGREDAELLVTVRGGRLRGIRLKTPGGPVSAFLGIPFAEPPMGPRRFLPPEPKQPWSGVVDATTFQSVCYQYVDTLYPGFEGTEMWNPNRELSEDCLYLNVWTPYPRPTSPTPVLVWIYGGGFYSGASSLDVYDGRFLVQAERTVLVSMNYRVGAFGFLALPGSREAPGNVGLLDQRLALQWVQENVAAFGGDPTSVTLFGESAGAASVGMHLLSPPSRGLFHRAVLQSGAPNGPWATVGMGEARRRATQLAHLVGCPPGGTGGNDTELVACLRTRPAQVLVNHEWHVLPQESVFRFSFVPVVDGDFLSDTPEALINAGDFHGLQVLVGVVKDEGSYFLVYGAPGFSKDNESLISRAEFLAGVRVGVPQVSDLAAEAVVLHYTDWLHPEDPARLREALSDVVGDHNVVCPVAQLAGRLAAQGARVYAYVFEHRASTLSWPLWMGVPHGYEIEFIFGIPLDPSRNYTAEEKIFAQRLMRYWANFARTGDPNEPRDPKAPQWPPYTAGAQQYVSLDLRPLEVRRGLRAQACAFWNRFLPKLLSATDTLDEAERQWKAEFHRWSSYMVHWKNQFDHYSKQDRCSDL
# Description: Binding affinity to AChE (unknown origin) assessed as inhibition constant incubated for 30 mins by ellman's method
# [4] = biological target: T4, Acetylcholinesterase (Mus musculus, UniProt P21836); test: Inhibition of mouse brain AChE; type: tissue-based
# T4 sequence (P21836 whole entry): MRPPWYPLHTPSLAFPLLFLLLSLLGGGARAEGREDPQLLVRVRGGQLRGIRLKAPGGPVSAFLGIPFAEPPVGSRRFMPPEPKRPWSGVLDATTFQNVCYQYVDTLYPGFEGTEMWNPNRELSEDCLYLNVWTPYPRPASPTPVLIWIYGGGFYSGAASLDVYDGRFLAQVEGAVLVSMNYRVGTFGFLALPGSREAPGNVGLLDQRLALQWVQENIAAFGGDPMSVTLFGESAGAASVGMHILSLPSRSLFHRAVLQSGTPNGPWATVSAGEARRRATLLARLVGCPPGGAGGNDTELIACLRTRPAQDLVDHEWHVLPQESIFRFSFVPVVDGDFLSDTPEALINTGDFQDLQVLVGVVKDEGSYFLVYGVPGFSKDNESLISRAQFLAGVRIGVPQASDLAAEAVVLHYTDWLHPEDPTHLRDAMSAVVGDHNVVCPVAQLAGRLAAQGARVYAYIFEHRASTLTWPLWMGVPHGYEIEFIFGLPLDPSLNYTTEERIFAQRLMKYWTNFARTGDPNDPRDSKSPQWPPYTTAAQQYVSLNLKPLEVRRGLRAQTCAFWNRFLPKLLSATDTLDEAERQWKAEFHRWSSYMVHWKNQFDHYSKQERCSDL
# [5] = biological target: Cholinesterase (Mus musculus, UniProt Q03311); test: Inhibition of mouse serum BuChE; type: cell-free
# Chain of Cholinesterase (Mus musculus, UniProt Q03311) (Q03311 whole entry): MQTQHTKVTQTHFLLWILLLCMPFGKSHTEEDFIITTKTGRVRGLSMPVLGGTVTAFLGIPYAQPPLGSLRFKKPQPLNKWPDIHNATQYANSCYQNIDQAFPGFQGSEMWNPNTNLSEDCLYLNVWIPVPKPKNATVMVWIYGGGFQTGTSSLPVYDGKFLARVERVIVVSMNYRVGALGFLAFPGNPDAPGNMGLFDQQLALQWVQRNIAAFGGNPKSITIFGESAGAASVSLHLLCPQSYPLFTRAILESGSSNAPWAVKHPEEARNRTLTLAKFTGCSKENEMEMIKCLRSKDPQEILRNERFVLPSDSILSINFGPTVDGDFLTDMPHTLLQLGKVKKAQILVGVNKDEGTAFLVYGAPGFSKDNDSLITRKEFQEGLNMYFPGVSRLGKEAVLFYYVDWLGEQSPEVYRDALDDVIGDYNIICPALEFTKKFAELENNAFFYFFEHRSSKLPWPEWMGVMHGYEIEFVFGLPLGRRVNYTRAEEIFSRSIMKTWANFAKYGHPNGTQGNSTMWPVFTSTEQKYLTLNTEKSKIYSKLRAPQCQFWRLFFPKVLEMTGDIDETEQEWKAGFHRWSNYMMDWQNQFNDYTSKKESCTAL
# [6] = biological target: T3, Acetylcholinesterase; test: Inhibition of AChE (unknown origin)
# [7] = biological target: T1, Cholinesterase
# Description: Inhibition of equine serum BuChE by ellman's method
# [8] = biological target: T5, Acetylcholinesterase (Electrophorus electricus, UniProt O42275); test: Inhibition of electrical eel AChE by ellman's method
# T5 sequence (O42275 whole entry): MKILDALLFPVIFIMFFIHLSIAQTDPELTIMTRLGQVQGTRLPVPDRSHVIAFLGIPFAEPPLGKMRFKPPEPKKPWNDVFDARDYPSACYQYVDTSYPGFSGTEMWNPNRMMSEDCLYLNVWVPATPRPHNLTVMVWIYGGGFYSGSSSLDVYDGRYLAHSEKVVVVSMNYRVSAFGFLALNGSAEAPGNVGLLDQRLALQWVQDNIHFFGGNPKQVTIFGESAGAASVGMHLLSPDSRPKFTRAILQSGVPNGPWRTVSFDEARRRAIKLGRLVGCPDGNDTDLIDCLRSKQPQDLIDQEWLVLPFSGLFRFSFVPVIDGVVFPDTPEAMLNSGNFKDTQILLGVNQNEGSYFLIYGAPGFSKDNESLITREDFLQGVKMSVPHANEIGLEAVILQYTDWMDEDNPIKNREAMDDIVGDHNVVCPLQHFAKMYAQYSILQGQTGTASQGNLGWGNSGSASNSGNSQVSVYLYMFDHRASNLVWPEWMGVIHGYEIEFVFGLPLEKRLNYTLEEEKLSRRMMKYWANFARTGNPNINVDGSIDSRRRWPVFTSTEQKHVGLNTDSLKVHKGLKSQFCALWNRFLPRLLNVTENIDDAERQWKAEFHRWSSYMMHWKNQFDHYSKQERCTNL
# [9] = biological target: T2, Cholinesterase; remark: listed apart in the source
# [10] = biological target: T5, Acetylcholinesterase
# Description: Binding affinity to electrical eel AChE assessed as inhibition constant incubated for 20 mins by absorbance based analysis
# [11] = biological target: T2, Cholinesterase; test: Binding affinity to BuChE (unknown origin) assessed as inhibition constant incubated for 20 mins by absorbance based analysis
# [12] = biological target: T2, Cholinesterase; test: Inhibition of BuChE (unknown origin) at 50 uM incubated for 20 mins by absorbance based analysis relative to control
# [13] = biological target: T3, Acetylcholinesterase; test: Inhibition of AChE (unknown origin) at 50 uM incubated for 20 mins by absorbance based analysis relative to control
# [14] = Antioxidant activity assessed as ABTS radical scavenging activity; type: functional
# T2 sequence (P06276 whole entry): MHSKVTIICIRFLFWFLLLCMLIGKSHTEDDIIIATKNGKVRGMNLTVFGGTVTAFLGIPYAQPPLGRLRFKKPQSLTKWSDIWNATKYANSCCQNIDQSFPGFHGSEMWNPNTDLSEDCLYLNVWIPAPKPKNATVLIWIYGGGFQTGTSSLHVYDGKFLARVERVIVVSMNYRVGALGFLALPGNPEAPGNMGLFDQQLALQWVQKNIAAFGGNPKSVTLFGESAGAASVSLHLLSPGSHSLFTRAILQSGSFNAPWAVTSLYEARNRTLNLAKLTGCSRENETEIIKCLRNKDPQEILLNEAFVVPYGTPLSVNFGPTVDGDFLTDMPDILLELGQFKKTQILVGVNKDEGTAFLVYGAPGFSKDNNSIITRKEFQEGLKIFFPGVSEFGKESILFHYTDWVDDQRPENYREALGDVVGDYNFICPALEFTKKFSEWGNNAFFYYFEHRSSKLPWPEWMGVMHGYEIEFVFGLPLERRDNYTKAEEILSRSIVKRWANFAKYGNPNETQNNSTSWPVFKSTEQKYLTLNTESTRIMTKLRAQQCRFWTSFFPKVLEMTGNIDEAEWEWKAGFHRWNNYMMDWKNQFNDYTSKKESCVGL
# T1 sequence (P81908 whole entry): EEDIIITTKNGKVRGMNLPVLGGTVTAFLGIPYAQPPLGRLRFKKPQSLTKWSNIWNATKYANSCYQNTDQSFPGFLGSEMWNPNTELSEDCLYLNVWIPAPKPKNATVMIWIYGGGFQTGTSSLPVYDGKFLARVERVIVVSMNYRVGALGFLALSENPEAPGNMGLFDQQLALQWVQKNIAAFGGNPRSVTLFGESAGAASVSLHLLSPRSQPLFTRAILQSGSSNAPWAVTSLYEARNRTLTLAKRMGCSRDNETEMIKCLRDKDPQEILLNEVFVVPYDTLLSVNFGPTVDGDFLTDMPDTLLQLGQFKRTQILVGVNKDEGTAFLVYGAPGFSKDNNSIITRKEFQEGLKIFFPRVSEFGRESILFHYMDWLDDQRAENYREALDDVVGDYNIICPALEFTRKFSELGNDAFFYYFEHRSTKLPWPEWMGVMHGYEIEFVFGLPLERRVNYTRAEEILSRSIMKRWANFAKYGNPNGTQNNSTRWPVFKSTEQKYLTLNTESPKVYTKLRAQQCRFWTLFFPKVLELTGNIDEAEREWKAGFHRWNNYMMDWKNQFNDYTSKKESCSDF
smiles,measurement,setting,value
OC[C@H]1O[C@@H](OCCN2CN(Cc3ccccc3)c3ccccc32)[C@H](O)[C@@H](O)[C@H]1O,Ki,[1],26 µM
CC(=O)Nc1nc(Cl)c2ncn(C3O[C@H](C(=O)O)[C@@H](OC(C)=O)[C@@H](OC(C)=O)[C@H]3OC(C)=O)c2n1 (stereo partly specified),Ki,[2],> 100 µM
same,Ki,[3],26.9 µM
CC1(C)O[C@H]2O[C@H](CNCCCCCCCCCCCNc3c4c(nc5ccccc35)CCCC4)[C@H](O)[C@H]2O1,IC50,[4],0.0022 µM
same,IC50,[5],0.0049 µM
COc1cc([C@@H](O)[C@H](CO[C@@H]2O[C@H](CO)[C@@H](O)[C@H](O)[C@H]2O)Oc2ccc(CCCO)cc2OC)ccc1O,IC50,[6],0.75 µM
O=c1c2ccccc2n(CCCCCCn2cc(CO[C@H]3C[C@H](O)[C@@H](CO)O3)nn2)c2ccccc12,IC50,[7],42.8 µM
same,IC50,[8],167 µM
COc1cc(CO)ccc1O[C@@H]1O[C@H](CO)[C@@H](O)[C@H](O)[C@H]1O [VANILLOLOSIDE],IC50,[6],4.55 µM
COC1O[C@H](Cn2ccc(=O)[nH]c2=O)[C@@H](OCc2ccccc2)[C@H](OCc2ccccc2)[C@H]1OCc1ccccc1 (stereo partly specified),Ki,[9],< 100 µM
OC[C@H]1O[C@@H](OCCN2CN(Cc3ccccc3)c3ccccc32)[C@H](O)[C@@H](O)[C@@H]1O,Ki,[1],52 µM
COc1ccc2c(c1)c(=O)c1ccccc1n2CCCCCCn1cc(CO[C@H]2C[C@H](O)[C@@H](CO)O2)nn1,IC50,[7],35.4 µM
same,IC50,[8],85.1 µM
CC(=O)Nc1nc(Cl)c2ncn(C3O[C@H]4[C@H](OC(=O)[C@@H]4O)[C@H]3OC(C)=O)c2n1 (stereo partly specified),Ki,[2],> 100 µM
same,Ki,[3],23.7 µM
CCCCCCCCCCCCNC(=O)[C@@H](OCc1ccccc1)[C@H]1O[C@@H](N=[N+]=[N-])[C@H](OC(C)=O)[C@H]1OCc1ccccc1,Ki,[10],1.73 µM
CC(=O)Nc1nc(NCc2ccccc2)c2ncn(C3O[C@H](CC(=O)NCc4ccccc4)[C@H](OC(C)=O)[C@H]3OC(C)=O)c2n1 (stereo partly specified),Ki,[2],> 100 µM
same,Ki,[3],50.5 µM
CC1(C)O[C@H]2O[C@H](CNCCCCCCCCCNc3c4c(nc5ccccc35)CCCC4)[C@H](O)[C@H]2O1,IC50,[4],0.0051 µM
same,IC50,[5],0.025 µM
Cn1cnc2c1c(=O)n(C[C@H]1O[C@@H]3OC(C)(C)O[C@@H]3[C@H]1OCc1ccccc1)c(=O)n2C,Ki,[10],> 100 µM
CCCCCCCCCCCCNC(=O)[C@@H](OCc1ccccc1)[C@H]1O[C@@H](n2cc(-c3ccccc3)nn2)[C@H](OC(C)=O)[C@H]1OCc1ccccc1,Ki,[10],3.53 µM
CCCCCCCCO[C@H]1[C@H](OC(C)=O)[C@@H](Cn2c(=O)c3c(ncn3C)n(C)c2=O)OC(OC(C)=O)[C@@H]1OC(C)=O (stereo partly specified),Ki,[11],5.4 µM
same,inhibition,[12],75.1%
same,inhibition,[13],66.5%
O=c1c2ccccc2n(CCCCCCn2cc(CO[C@@H]3O[C@H](CO)[C@H](O)[C@H](O)[C@H]3O)nn2)c2ccccc12,IC50,[7],38.3 µM
same,IC50,[8],44.7 µM
CCCCCCCCCCCCNC(=O)[C@@H](OCc1ccccc1)[C@H]1O[C@H](N=[N+]=[N-])[C@H](OC(C)=O)[C@H]1OCc1ccccc1,Ki,[10],> 100 µM
CC(=O)Nc1nc(Cl)c2ncn(C3O[C@H](C(=O)NCc4ccccc4)[C@@H](OC(C)=O)[C@@H](OC(C)=O)[C@H]3OC(C)=O)c2n1 (stereo partly specified),Ki,[2],> 100 µM
same,Ki,[3],31 µM
CC(=O)Nc1nc(Cl)c2ncn(C3O[C@H](CC(=O)NCc4ccccc4)[C@H](OC(C)=O)[C@H]3OC(C)=O)c2n1 (stereo partly specified),Ki,[2],> 100 µM
same,Ki,[3],14.8 µM
COC1O[C@H](Cn2ccc(=O)n(C[C@H]3O[C@H](OC)[C@H](O)[C@@H](O)[C@@H]3O)c2=O)[C@@H](O)[C@H](O)[C@H]1O (stereo partly specified),Ki,[10],22.9 µM
same,Ki,[9],< 100 µM
CC1(C)O[C@H]2[C@@H](O1)[C@@H](CNCCCCCCCCCNc1c3c(nc4ccccc14)CCCC3)O[C@@H]1OC(C)(C)O[C@@H]12,IC50,[4],0.0048 µM
same,IC50,[5],0.037 µM
CCCCCCCC[Se]C[C@H]1OC(OC)[C@H](O)[C@H]1O (stereo partly specified),IC50,[14],210 µM
COC1O[C@H](Cn2ccc(=O)n(C[C@H]3O[C@H](OC)[C@H](OCc4ccccc4)[C@@H](OCc4ccccc4)[C@@H]3OCc3ccccc3)c2=O)[C@@H](OCc2ccccc2)[C@H](OCc2ccccc2)[C@H]1OCc1ccccc1 (stereo partly specified),Ki,[10],4.2 µM
same,Ki,[9],4 µM
CC1(C)O[C@H]2[C@@H](O1)[C@@H](CNCCCCCCCCCCNc1c3c(nc4ccccc14)CCCC3)O[C@@H]1OC(C)(C)O[C@@H]12,IC50,[4],0.0076 µM
same,IC50,[5],0.026 µM
